Experimental data from PMC8391421, “Identification of Novel Positive Allosteric Modulators of Neurotrophin Receptors for the Treatment of Cognitive Dysfunction” (Cells, 2021).

Tests used:
[1] = target: T1, TrkC (Homo sapiens, UniProt Q16288); experiment: TrkC PathHunter cell-based assay (U2OS-TrkC/p75)
T1 construct: host or cells: U2OS (human osteosarcoma), co-expressing p75
Excerpt: The human osteosarcoma cell lines U2OS-TrkA/p75, U2OS-TrkB/p75, U2OS-TrkC/p75, U2OS-ratTrkA/p75, U2OS-FGFR1 (fibroblast growth factor receptor 1) as well as the human embryonic kidney cell line HEK293-IGF1R (insulin-like growth factor 1 receptor) from DiscoverX, Birmingham, United Kingdom, were used in the in vitro experiments. Eagle’s minimum essential medium (EMEM) ATCC #30-2003 from LGC Standards AB, Borås, Sweden; Leibovitz’s L15 medium, RPMI1640, fetal bovine serum, horse serum, penicillin/streptomycin, and Hoechst dye purchased from Invitrogen, Gothenburg, Sweden, were also used. Black poly-D-lysine coated 384-well plates (Viewplate) were purchased from PerkinElmer, Upplands Väsby, Sweden, and white 384-well assay plates(3570) were purchased from Corning, Amsterdam, Netherlands. […] Recombinant intracellular domain (ICD) of TrkA (08-186) and single site biotinylated activated (08-486-20N) or non-activated TrkA (08-486-23N) were obtained from Carna Biosciences, Odense, Denmark. […]
U2OS cells were maintained subconfluent in EMEM supplemented with 10% FBS and penicillin/streptomycin/hygromycin and G418. […] The functional (complemented) β-gal will hydrolyze a substrate to generate a luminescence signal. The generated luminescence was read using an EnVision plate reader from PerkinElmer, Upplands Väsby, Sweden, or an ID5 plate reader from Molecular Devices, Berkshire, RG41 5TS UK. […]

[2] = target: T2, TrkB (Homo sapiens, UniProt Q16620); experiment: TrkB PathHunter cell-based assay (U2OS-TrkB/p75)
T2 construct: host or cells: U2OS (human osteosarcoma), co-expressing p75 and SHC-1 fused to the enzyme acceptor
Description: U2OS cells were maintained subconfluent in EMEM supplemented with 10% FBS and penicillin/streptomycin/hygromycin and G418. One day prior to the experiment, 5000 cells of EMEM supplemented with 0.5% horse serum were seeded in each well of a 384-well white plate. The assay was performed as previously described. Briefly, the TrkA or TrkB cell-based PathHunter® assays use enzyme fragment complementation (EFC) technology for the complementation of two β-galactosidase (β-gal) fragments in order to study protein–protein interactions. Upon activation with ligand, TrkA or TrkB are phosphorylated on several tyrosine residues, including tyrosine 490, leading to an interaction with SHC-1. In the PathHunter® assays, the Trk-receptors are fused to an enzyme donor tag, and SHC-1 is fused to a larger part of β-gal called an enzyme acceptor. The interactions between the recombinant enzyme donor, i.e., the Trk-receptor, with an enzyme acceptor, i.e., SHC-1, leads to an active β-gal enzyme. The functional (complemented) β-gal will hydrolyze a substrate to generate a luminescence signal. The generated luminescence was read using an EnVision plate reader from PerkinElmer, Upplands Väsby, Sweden, or an ID5 plate reader from Molecular Devices, Berkshire, RG41 5TS UK. […] Min- and Max-control wells were included on each plate. A compound was considered a hit if the percent activation was more than 50% and if the value was two standard deviations higher than the mean value of all of the samples on the plate. The average activation of all of samples on 10 different 384-well plates was 31%. […] Due to the risk of adverse events with the systemic administration of TrkA agonists, the screen and the re-screen processes were designed to increase the likelihood of identifying the positive modulators of NGF-signaling rather than identifying TrkA agonists. Based on the results of the re-screen, in combination with the physical–chemical properties of the molecules, a collection of hits was used for the EC50 determinations.
Both Toltrazuril and Ponazuril are registered veterinary products prescribed for parasitic infections in animals. […] The cellular response to NGF or BDNF was measured using PathHunter® assays employing β-gal enzyme fragment complementation technology. The activation of Trk-receptors leads to an intracellular interaction between the Trk-receptor and SHC-1 and thereby to the complementation of β-gal, which will render in a functional enzyme. β-gal will hydrolyze a substrate to generate luminescence, which is proportional to the number of activated receptors. […]

T2 sequence (Q16620 32-822): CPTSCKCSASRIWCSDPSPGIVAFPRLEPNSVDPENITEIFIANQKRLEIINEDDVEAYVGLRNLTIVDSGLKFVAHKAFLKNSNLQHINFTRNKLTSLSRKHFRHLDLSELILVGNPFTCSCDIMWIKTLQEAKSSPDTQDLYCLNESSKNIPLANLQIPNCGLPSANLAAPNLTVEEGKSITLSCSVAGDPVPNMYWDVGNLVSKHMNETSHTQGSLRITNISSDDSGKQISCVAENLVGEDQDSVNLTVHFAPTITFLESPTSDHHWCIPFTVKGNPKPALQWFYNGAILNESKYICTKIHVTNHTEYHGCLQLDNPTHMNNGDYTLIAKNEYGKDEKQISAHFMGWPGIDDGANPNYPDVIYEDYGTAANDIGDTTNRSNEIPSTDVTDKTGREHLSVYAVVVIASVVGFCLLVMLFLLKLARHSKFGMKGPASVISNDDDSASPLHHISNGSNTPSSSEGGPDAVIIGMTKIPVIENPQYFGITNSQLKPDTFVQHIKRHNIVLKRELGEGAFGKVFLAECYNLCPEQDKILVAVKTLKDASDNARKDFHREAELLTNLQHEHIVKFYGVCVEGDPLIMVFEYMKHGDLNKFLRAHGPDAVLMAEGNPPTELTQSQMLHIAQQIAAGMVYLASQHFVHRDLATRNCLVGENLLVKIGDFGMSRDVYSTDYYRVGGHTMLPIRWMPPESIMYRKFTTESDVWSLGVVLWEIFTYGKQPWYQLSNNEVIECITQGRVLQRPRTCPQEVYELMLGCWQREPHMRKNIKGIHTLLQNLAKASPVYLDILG
T1 sequence (Q16288 32-839): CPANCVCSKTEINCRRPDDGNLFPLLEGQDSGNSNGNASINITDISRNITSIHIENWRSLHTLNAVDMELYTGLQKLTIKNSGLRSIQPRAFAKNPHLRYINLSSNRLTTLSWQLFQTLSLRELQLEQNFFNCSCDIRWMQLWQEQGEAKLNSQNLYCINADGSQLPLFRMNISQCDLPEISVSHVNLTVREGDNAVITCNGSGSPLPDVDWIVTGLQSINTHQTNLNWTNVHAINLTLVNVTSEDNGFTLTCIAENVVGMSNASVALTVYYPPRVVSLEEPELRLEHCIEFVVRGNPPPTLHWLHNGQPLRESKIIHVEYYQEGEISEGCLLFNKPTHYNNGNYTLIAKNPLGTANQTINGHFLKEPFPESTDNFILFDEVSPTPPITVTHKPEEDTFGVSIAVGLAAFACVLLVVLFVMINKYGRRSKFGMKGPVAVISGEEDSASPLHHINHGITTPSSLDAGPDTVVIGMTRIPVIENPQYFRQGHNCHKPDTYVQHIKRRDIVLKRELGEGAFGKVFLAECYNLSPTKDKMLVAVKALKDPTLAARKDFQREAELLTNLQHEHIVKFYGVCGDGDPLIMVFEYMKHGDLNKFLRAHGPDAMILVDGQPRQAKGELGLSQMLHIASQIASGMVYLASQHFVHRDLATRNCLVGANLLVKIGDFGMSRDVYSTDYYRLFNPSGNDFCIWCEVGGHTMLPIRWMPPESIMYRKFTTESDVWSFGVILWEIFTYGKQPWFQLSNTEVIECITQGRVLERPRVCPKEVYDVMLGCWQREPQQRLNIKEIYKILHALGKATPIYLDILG

Cc1cc(-n2c(=O)[nH]c(=O)n(C)c2=O)ccc1Oc1ccc(S(=O)(=O)C(F)(F)F)cc1 [ACD855, Toltrazuril-sulfone]
EC50 [1]: 0.8 µM
TrkC Effect (efficacy) [1]: 56%
EC50 ([2]; PathHunter cell-based assay): 3.2 µM
TrkB Effect (efficacy) ([2]; PathHunter cell-based assay): 319%
activation of TrkB-receptor by compound itself ([2]; without ligand, 100% = 30 ng/mL ligand): 45%
